Data reported in ChEMBL document CHEMBL5321227, “Lysosome-targeting phenalenones as efficient type I/II photosensitizers for anticancer photodynamic therapy” (Eur J Med Chem, 2023).
Active and inactive are the calls of the source. No cut-off for these calls is given here.

Experiments:
MDA-MB-231 [1] = assay: Anticancer activity against human MDA-MB-231 cells assessed as reduction in cell viability at 1 uM incubated for 24 hrs in presence of irradiation with 500 to 700nm and 12 J/cm^2 LED light by CCK-8 assay; type: functional, cell-based
4T1 [2] = assay: Anticancer activity against mouse 4T1 cells assessed as reduction in cell viability at 1 uM incubated for 24 hrs under photoirradiation with 500 to 700nm and 12 mW/cm^2 LED light by CCK-8 assay; type: functional, cell-based
[3] = Photostability of compound in EtOH assessed as compound decomposition at 50 uM incubated for 5 to 20 mins under photoirradiation with 550nm and 10 J/cm^2 LED light by UV-visible spectroscopic analysis; type: physicochemical; settings: time 5-20 min
[4] = Induction of singlet oxygen production in ethanol assessed as change in absorption spectra at 380nm under photoirradiation with 550nm and 10 J/cm^2 LED light for 2 to 20 mins by ABDA based microplate reader analysis; type: functional; settings: time 2-20 min
[5] = Induction of superoxide anion radical production in aqueous solution assessed as increase in fluorescence intensity at 5 uM under photoirradiation with 550nm and 10 J/cm^2 LED light and measured after 8 mins by DHR123 based fluorescence spectroscopic analysis
[6] = Drug uptake in human MDA-MB-231 cells assessed as increase in intracellular uptake at 5 uM incubated for 10 mins by flow cytometry analysis; type: ADME, cell-based; settings: mda-mb-231, 10 min
[7] = Drug uptake in human MDA-MB-231 cells assessed as increase in intracellular uptake at 5 uM incubated for 2 hrs by flow cytometry analysis; type: ADME, cell-based; settings: mda-mb-231, 2 h
MDA-MB-231 [8] = assay: Induction of intracellular ROS generation in human MDA-MB-231 cells assessed as fold increase in intracellular ROS level at 2.5 uM incubated for 2 hrs followed by under photoirradiation with 500 to 700nm and 12 J/cm^2 LED light by DCFH-DA staining based fluorometric analysis relative dark control group; type: functional
MDA-MB-231 [9] = assay: Anticancer activity against human MDA-MB-231 cells assessed as reduction in cell viability incubated for 24 hrs by CCK-8 assay; type: functional, cell-based; settings: MDA-MB-231, 24 h
MDA-MB-231 [10] = assay: Anticancer activity against human MDA-MB-231 cells assessed as reduction in cell viability incubated for 24 hrs in presence of irradiation with 500 to 700nm and 12 J/cm^2 LED light by CCK-8 assay; type: functional, cell-based; settings: MDA-MB-231, light or radiation study
MDA-MB-231 [11] = assay: Phototoxicity against human MDA-MB-231 cells assessed as reduction in cell viability incubated for 24 hrs in presence of irradiation with 500 to 700nm and 12 J/cm^2 LED light by CCK-8 assay; type: functional, cell-based
[12] = Drug localization in lysosome of human MDA-MB-231 cells assessed as increase in apparent yellow fluorescent signal at 5 uM incubated for 2 hrs by Lyso-Tracker Green, ER-Tracker Green, Mito-Tracker Green and Hoechst 33342 staining based confocal laser scanning microscopy; type: ADME, subcellular; settings: mda-mb-231, 2 h
4T1 [13] = assay: Anticancer activity against mouse 4T1 cells assessed as fold increase in gamma-H2A.X protein expression at 1 uM preincubated for 2 hrs followed by photoirradiation with 500 to 700nm and 12 J/cm^2 LED light and measured after 24 hrs by Western blot analysis relative to control; type: functional; settings: time 26 hrs
4T1 [14] = assay: Anticancer activity against mouse 4T1 cells assessed as fold increase in cleaved caspase-3 protein expression at 1 uM preincubated for 2 hrs followed by photoirradiation with 500 to 700nm and 12 J/cm^2 LED light and measured after 24 hrs by Western blot analysis relative to control; type: functional; settings: time 26 hrs
4T1 [15] = assay: Anticancer activity against mouse 4T1 cells assessed as reduction in cell viability incubated for 24 hrs in presence of irradiation with 500 to 700nm and 12 J/cm^2 LED light by CCK-8 assay; type: functional, cell-based; settings: 4T1, light or radiation study
[16] = Stability of compound in various pH; type: physicochemical
[17] = Induction of singlet oxygen production in ethanol assessed as singlet oxygen quantum yield at 410nm under photoirradiation with 550nm and 10 mW/cm^2 LED light for 10 to 80 secs by DPBF based microplate reader analysis; type: functional; settings: time 10-80 sec
[18] = Drug metabolism in carboxylesterase (unknown origin) assessed as formation of active photosensitizer 6-amino-5-iodo-1H-phenalen-1-one by measuring increase in fluorescence at 610nM at 10 uM under by fluorescence assay; type: ADME; settings: human
[19] = Drug metabolism in carboxylesterase (unknown origin) assessed as formation of active photosensitizer 6-amino-5-iodo-1H-phenalen-1-one at 10 uM under by LC-MS/MS analysis assay; type: ADME; settings: human
[20] = Stability of compound in GSH at 10 uM incubated for 30 mins by fluorescence assay; type: physicochemical; settings: 0.5 h
[21] = Stability of compound in H2O2 at 10 uM incubated for 30 mins by fluorescence assay; type: physicochemical; settings: 0.5 h
[22] = Stability of compound in gamma-glutamyl transpeptidase at 10 uM incubated for 30 mins by fluorescence assay; type: physicochemical; settings: 0.5 h
[23] = Drug metabolism in human MDA-MB-231 cells assessed as increase in SR expression at 5 uM incubated for 12 hrs by flow cytometry analysis; type: ADME, cell-based; settings: mda-mb-231, 12 h
MDA-MB-231 [24] = assay: Anticancer activity against human MDA-MB-231 cells assessed as reduction in cell viability at 0.01 to 10 uM incubated for 24 hrs by CCK-8 assay; type: functional, cell-based; settings: dose 0.01-10 µM
4T1 [25] = assay: Anticancer activity against mouse 4T1 cells assessed as reduction in cell viability at 0.01 to 10 uM incubated for 24 hrs by CCK-8 assay; type: functional, cell-based; settings: dose 0.01-10 µM
MDA-MB-231 [26] = assay: Anticancer activity against human MDA-MB-231 cells assessed as reduction in cell viability preincubated for 12 hrs followed by photoirradiation with 500 to 700nm and 12 J/cm^2 LED light for 24 hrs by CCK-8 assay; type: functional, cell-based; settings: MDA-MB-231, light or radiation study
4T1 [27] = assay: Anticancer activity against mouse 4T1 cells assessed as reduction in cell viability preincubated for 12 hrs followed by photoirradiation with 500 to 700nm and 12 J/cm^2 LED light for 24 hrs by CCK-8 assay; type: functional, cell-based; settings: 4T1, light or radiation study
MDA-MB-231 [28] = assay: Anticancer activity against human MDA-MB-231 cells assessed as number of dead cells at 2.5 uM incubated for 12 hrs by calcein-AM and propidium iodide staining based flow cytometry; type: functional, cell-based
MDA-MB-231 [29] = assay: Anticancer activity against human MDA-MB-231 cells assessed as number of dead cells at 2.5 uM preincubated for 12 hrs followed by photoirradiation with 500 to 700nm and 12 J/cm^2 LED light for 10 mins by calcein-AM and propidium iodide staining based flow cytometry; type: functional, cell-based; settings: time 12.2 hrs

With `Nc1c(I)cc2c3c(cccc13)C(=O)C=C2` the Activity (MDA-MB-231 [1]) was “Active”, the Activity (4T1 [2]) was “Active” and the Stability [3] was “Stable”. For the same compound, the Activity [4] was “Active”, the Activity [5] was “Active” and the Drug uptake [6] was “Active”. For the same compound, the Drug uptake [7] was “Active”, the “fold change (FC)” value (MDA-MB-231 [8]) was 5.54 and the IC50 (MDA-MB-231 [9]) was over 50 µM. The IC50 (MDA-MB-231 [10]) was 0.66 µM, the Activity (MDA-MB-231 [11]) was “Active” and the Drug uptake [12] was “Active”. The “fold change (FC)” value (4T1 [13]) was 2.36, the “fold change (FC)” value (4T1 [14]) was 3.09 and the IC50 (4T1 [15]) was 0.59 µM.

With `Nc1ccc2c3c(cccc13)C(=O)C=C2` the Activity [4] was “inactive”.

In the case of `O=C(Nc1c(I)cc2c3c(cccc13)C(=O)C=C2)c1ccccc1`, the Stability [3] is reported as “Stable”, the Stability [16] is reported as “Stable” and the Activity [17] is reported as 0.1. The Drug metabolism [18] was “Metabolite_Detected”, the Drug metabolism [19] was “Metabolite_Detected” and the Stability [20] was “Stable”. For the same compound, the Stability [21] was “Stable”, the Stability [22] was “Stable” and the Drug metabolism [23] was “Metabolite_Detected”. The Activity (MDA-MB-231 [24]) was “Active”, the Activity (4T1 [25]) was “Active” and the IC50 (MDA-MB-231 [26]) was 4 µM. For the same compound, the IC50 (4T1 [27]) was 4.8 µM, the Activity (MDA-MB-231 [28]) was “inactive” and the Activity (MDA-MB-231 [29]) was “Active”.
